Marks after values point to notes of the source that are not given here. Square brackets hold non-standard residues; d marks the D form. Ends that are not written are not given here.
Tests used:
MiaPaCa cells = assay: Growth of MiaPaCa cells measured by cell counts; format: cell-based, human
[1] = system: human pancreatic MiaPaCa cancer cell line; assay: Inhibition of 3H-thymidine incorporation into DNA, MiaPaCa cells; format: cell-based
Protocol: The ability of peptides of Formula I to inhibit incorporation of [³H]thymidine into DNA of monolayer cultures the small cell lung cancer line H-69 and MiaPaCa cell line is assayed as described by Kern et al. (Cancer Res., 45, 5436 (1985).
1x10⁵ cells are plated with DME media containing 10% fetal calf serum (FCS) on Day 0. After 24 hours media is removed and replaced with DME media without serum and incubated at 37°C for 2 days. Media was then removed and replaced with DME media containing 5% FCS with or without somatostatin analog. Media with peptides was changed daily for 4 days. On day 4, 1 »Ci ³H-thymidine added and incubated an additional 17 hrs. Media is then removed and cells recovered by trypsination. DNA extracted with 1 N perchloric acid and the radioactivity measured.

GH release = details: relative to somatostatin; cited from earlier work
[2] = system: human mammary cell line MDA-MB-231; details: at 10 »g dose; cited from earlier work
[3] = in vivo; cited from earlier work

Q: Which “% Decrease in cell number” value (MiaPaCa cells; Dose 10⁻⁶ M) does the source give for N[C@@H](Cc1ccc(N(CCCl)CCCl)cc1)C(=O)O [Melphalan, 4-[bis{2-chloroethyl}amino]-phenylalanine] here?
A: 29** %

Q: What about the “% Decrease in cell number” value (MiaPaCa cells; Dose 10⁻⁷ M) of the same compound?
A: 1%

Q: And the “% Decrease in cell number” value (MiaPaCa cells; Dose 10⁻⁸ M)?
A: 1%

Q: And the “% inhibition of ³H-thymidine incorp.” value ([1]; Dose 10⁻⁶ M)?
A: 20%

Q: What about the “% inhibition of ³H-thymidine incorp.” value ([1]; Dose 10⁻⁷ M) of the same compound?
A: 18%

Q: Which “times more potent than somatostatin in test for inhibition of GH release” value (GH release) does the source give for “[dF]CY[dW]KVCW-NH2 (cysteine pairing not given here)” here?
A: more than 100 times

Q: With “pGlu-His-Trp-Ser-Tyr-D-Lys[Ahx-A₂bu(SAL)₂(Cu)]-Leu-Arg-Pro-Gly-NH₂” as the compound, how does the “inhibits the [³H]thymidine incorporation into DNA” value [2] read?
A: 87%

Q: For D-Phe-Cys-Tyr-D-Trp-Lys-Val-Cys-Thr-NH₂, which “times more potent than somatostatin in test for inhibition of GH release” value (GH release) is on record?
A: more than 100 times

Q: Which half-life in circulation [3] does the source give for C[C@H](N)C(=O)NCC(=O)N[C@H]1CSSC[C@@H](C(=O)O)NC(=O)[C@H](CO)NC(=O)[C@H]([C@@H](C)O)NC(=O)[C@H](Cc2ccccc2)NC(=O)[C@H]([C@@H](C)O)NC(=O)[C@H](CCCCN)NC(=O)[C@H](Cc2c[nH]c3ccccc23)NC(=O)[C@H](Cc2ccccc2)NC(=O)[C@H](Cc2ccccc2)NC(=O)[C@H](CC(N)=O)NC(=O)[C@H](CCCCN)NC1=O [SS-14] here?
A: about 3 min
